Measured values as given in patent US20250025397A1, “AN OIL-IN-WATER EMULSION GEL COMPRISING TIOTROPIUM BROMIDE” (Dryox Health, S.L., priority 2021, published 2025).
Like-named read-outs stand apart in the source and are kept apart here.

Tests used:
[1] = Tiotropium maximum solubility in a selection of excipients; type: physicochemical
Method: For the evaluation of the compatibility of the active in each excipient, 25 mg of tiotropium bromide (TTB) were weighed in suitable glass containers and increasing amounts of the appropriate solvent were added. The samples were subjected to heating and ultrasonication when necessary. The appearance of the mixture and the maximum concentration of TTB in each solvent was recorded.
The solubility of the active was determined in different excipients (polymer solvents, permeation enhancers, surfactants, emollients, etc.). Table 1 summarizes the maximum solubility achieved in each of them.

[2] = cited from earlier work

## C[N+]1(C)[C@@H]2CC(OC(=O)C(O)(c3cccs3)c3cccs3)C[C@H]1[C@@H]1O[C@@H]12.[Br-] (stereo partly drawn) [Tiotropium bromide, [(1S,2S,4R,5R)-9,9-dimethyl-3-oxa-9-azoniatricyclo[3.3.1.0^2,4]nonan-7-yl]2-hydroxy-2,2-dithiophen-2-ylacetate bromide]
[1]; in 1,3-propanediol
  Maximum solubility: 2.50 % (w/w)
[1]; in Benzyl Alcohol
  Maximum solubility: 50.00 % (w/w)
[1]; in Cremophor EL
  Maximum solubility: 0.20 % (w/w)
[1]; in Cremophor RH40
  Maximum solubility: <0.12 % (w/w)
[1]; in DMSO
  Maximum solubility: >30.00 % (w/w)
[1]; in Dimethyl fomamide
  Maximum solubility: 40.00 % (w/w)
[1]; in Ethanol
  Maximum solubility: 0.80 % (w/w)
[1]; in Ethyl Oleate
  Maximum solubility: <0.12 % (w/w)
[1]; in Glycerol
  Maximum solubility: 6.00 % (w/w)
[1]; in IPM
  Maximum solubility: <0.12 % (w/w)
[1]; in Isopropyl Alcohol
  Maximum solubility: 0.13 % (w/w)
[1]; in Kollicream ® 3C
  Maximum solubility: <0.12 % (w/w)
[1]; in Labrasol
  Maximum solubility: 0.55 % (w/w)
[1]; in Lactic acid
  Maximum solubility: 20.00 % (w/w)
[1]; in Linseed oil
  Maximum solubility: <0.12 % (w/w)
[1]; in MCT
  Maximum solubility: <0.12 % (w/w)
[1]; in Oleic acid
  Maximum solubility: <0.12 % (w/w)
[1]; in PEG-400
  Maximum solubility: 1.67 % (w/w)
[1]; in Polysorbate 20
  Maximum solubility: 1.15 % (w/w)
[1]; in Polysorbate 80
  Maximum solubility: 0.20 % (w/w)
[1]; in Propylene Glycol
  Maximum solubility: 5.00 % (w/w)
[1]; in Transcutol HP
  Maximum solubility: <0.12 % (w/w)
[1]; in Triacetin
  Maximum solubility: <0.12 % (w/w)
[1]; in Triolein
  Maximum solubility: <0.12 % (w/w)
[2]; in dimethyl sulphoxide
  solubility: freely soluble
[2]; in methanol
  solubility: soluble
[2]; in methylene chloride
  solubility: practically insoluble
[2]; in water
  solubility: sparingly soluble
[2]; room temperature, independent of pH
  solubility in aqueous solutions: approx. 2.5%
